The data set is described as follows: Plasma, brain and CSF concentrations (PK) in healthy rats after single oral dose. The format is in vivo, Wistar Han rats. As to conditions: 15 mg/kg p.o. single dose; for Kp: 15 mg/kg. Here is the method: Healthy male Wistar Han rats were treated orally with a single dose of 15 mg/kg Compound of formula (I) (24 rats in total, 3 rats per time-point). Compound of formula (I) was formulated as a suspension in 0.5% methylcellulose with 1% Tween 80 and administered at a concentration of 1.5 mg/mL with a dosing volume of 10 mL/kg.
At designated time-points (0.5; 1; 2; 4; 8; 24; 32; 48 hrs post-dose), the rats were euthanized by carbon dioxide inhalation. Thereafter, blood, CSF, and brain samples were collected as follows. Blood samples were collected by cardiac puncture into K2EDTA containing tubes. The tubes were inverted several times, placed on ice and centrifuged within 30 min of collection (4° C. for 5 min at 6000 rpm) to obtain plasma. The plasma samples were snap frozen in dry ice and stored at −80° C. until analysis. The CSF samples were collected by using a scalp-needle to puncture the foramen magnum. The CSF samples were acidified with 10% formic acid (final sample concentration of 0.5% formic acid) and stored in −80° C. until further analysis. The brain was collected, weighed and snap frozen in dry ice until further analysis. To obtain brain homogenates, firstly water was added to each brain (brain weight:water volume=1:4) then the brain was homogenized with a H-speed dispersator (time procedure: homogenizing for 10 s and interval of 10 s per time, total 3-5 times; cleaning procedure for dispersator: Water-Methanol-Ethanol-Water, 10 s each). The brain homogenate samples were transferred to individual tubes and stored at −80° C. prior to analysis.
The samples were analyzed as follows. For each analytical batch of plasma and brain samples, the standard and quality control (QC) samples were freshly prepared in blank male Wistar Han plasma (with K2EDTA anticoagulant) and brain homogenate. Acidified (containing 0.5% formic acid) artificial CSF was used as standard and quality control for the CSF samples. Additionally, one set of blank male Wistar Han CSF was included as QC sample.
To an aliquot of each standard, QC, control blank and study samples, internal standard (^13CD6-Compound of formula (I)) in methanol/acetonitrile (1:1, v/v) was added. The samples were mixed for 1 minute and centrifuged at 4000 rpm at 4° C. for 15 minutes. Supernatants were transferred and diluted in MeOH/water (1:1, v/v, with 0.1% FA) prior to LC-MS/MS injection.
Chromatographic separation was achieved on a Shimadzu LC-20AD (for plasma and brain samples) or Shimadzu LC-30AD (for CSF samples) using a Kinetex 2.6μ C18 100A column (50 mm*3.00 mm; for plasma and brain samples) or an ACE 5 C4 column (50 mm*2.1 mm; for CSF samples). The following conditions were applied: flow rate: 0.7 mL/min; run time: 3.0 min; mobile phase: A: 5 mM NH4OAc (0.1% FA), B: Acetonitrile (0.1% FA).
Detection was accomplished with an AB Sciex 5500 utilizing electrospray MS/MS in positive ion multiple reaction monitoring mode (MRM). The MRM channels were 511.29/98 for Compound of formula (I) and 518.17/102.10 for the internal standard ^13CD6-Compound of formula (I).
The measured plasma, CSF and brain concentrations at each time-point, the nominal sample collection time, and intended dosages were used for pharmacokinetic analysis. The PK parameters of all study compounds were determined by non-compartmental analysis using WinNonlin Version 8.0 (Pharsight).

Like-named read-outs stand apart in the source and are kept apart here.

A word on the Cmax: it is the highest concentration seen after dosing. Take `Cc1cc(Nc2ncc3c(n2)N(C)CN(c2c(Cl)cccc2Cl)C3=O)ccc1C1CCN(C)CC1` [Compound of formula (I)]: the “AUCInf, brain” value came to 8415 ng·h/g; the “AUCLast, brain” value is 8383 ng·h/g; the “Cmax, CSF” value was 15.6 ng/mL; the “Cmax, brain” value was 588 ng/g. For the same molecule, the AUC(0-inf) (male, Wistar Han, rat, CSF, po, read-out: AUCInf, CSF) came out at 221 ng·h/mL. In addition, the AUC(0-t) (male, Wistar Han, rat, CSF, po, read-out: AUCLast, CSF) turned out to be 219 ng·h/mL. For the same molecule, the Kp (male, Wistar Han, rat, CSF/unbound plasma, oral, unbound plasma from free fraction 7.8%, read-out: CSF to unbound plasma ratio based on AUCInf) turned out to be 0.2. In addition, the Kp (male, Wistar Han, rat, CSF/unbound plasma, oral, unbound plasma from free fraction 7.8%, read-out: CSF to unbound plasma ratio based on AUCLast) stood at 0.2. Besides, under “male, Wistar Han, rat, CSF/unbound plasma, oral, unbound plasma from free fraction 7.8%, read-out: CSF to unbound plasma ratio based on Cmax”, the Kp turned out to be 0.18. In addition, the Kp (male, Wistar Han, rat, brain/plasma, po, read-out: Brain to plasma ratio based on AUCInf) is 0.6. Further, where the note is “male, Wistar Han, rat, brain/plasma, po, read-out: Brain to plasma ratio based on AUCLast”, the Kp was determined as 0.6. Where the note is “male, Wistar Han, rat, brain/plasma, po, read-out: Brain to plasma ratio based on Cmax”, the Kp is 0.52. The peak level (male, Wistar Han, rat, plasma, po) (Cmax) was 1140 ng/mL. Also, the AUC(0-inf) (male, Wistar Han, rat, plasma, po, read-out: AUCInf, plasma) is 14100 ng·h/mL. For the setting “male, Wistar Han, rat, plasma, po, read-out: AUCLast, plasma”, the AUC(0-t) stood at 14100 ng·h/mL.

(Values after patent publication US20260256790A1, “DEBIO-0123 IN COMBINATION WITH TEMOZOLOMIDE AND RADIOTHERAPY FOR USE IN TREATING GLIOMA” (Debiopharm International S.A., priority 2023, published 2026).)
